A value given as a limit tells only on which side of the number the result lay.

The test system of the first assay is liver MAO-A.
Experiment: not given
The settings on record: single oral dose giving approximately 80% inhibition of brain MAO-A; 3 hours.
In the case of `NNCCc1ccccc1` [phenelzine], the “inhibition of liver MAO-A” value is ≥ 90%.

In another assay the test system is MAO.
Experiment: not given
The settings on record: background art; cited from earlier work.
Regarding `N[C@@H]1C[C@H]1c1ccccc1` (relative stereo) [tranylcypromine], the “selectivity and reversibility of MAO inhibition” value is “non-selective, irreversible inhibitors”.
As for `NNCCc1ccccc1` [phenelzine], the “selectivity and reversibility of MAO inhibition” value is on record as “non-selective, irreversible inhibitors”.
Turning to `Cc1cc(C(=O)NNCc2ccccc2)no1` [isocarboxazid], the “selectivity and reversibility of MAO inhibition” value is reported as “non-selective, irreversible inhibitors”.

The next assay addresses T1, MAO-A (Rattus norvegicus, UniProt P21396).
T1 construct: mitochondrial extracts of rat brain; from tissue; host or cells: rat brain, mitochondrial extracts
T1 sequence (P21396 1-526): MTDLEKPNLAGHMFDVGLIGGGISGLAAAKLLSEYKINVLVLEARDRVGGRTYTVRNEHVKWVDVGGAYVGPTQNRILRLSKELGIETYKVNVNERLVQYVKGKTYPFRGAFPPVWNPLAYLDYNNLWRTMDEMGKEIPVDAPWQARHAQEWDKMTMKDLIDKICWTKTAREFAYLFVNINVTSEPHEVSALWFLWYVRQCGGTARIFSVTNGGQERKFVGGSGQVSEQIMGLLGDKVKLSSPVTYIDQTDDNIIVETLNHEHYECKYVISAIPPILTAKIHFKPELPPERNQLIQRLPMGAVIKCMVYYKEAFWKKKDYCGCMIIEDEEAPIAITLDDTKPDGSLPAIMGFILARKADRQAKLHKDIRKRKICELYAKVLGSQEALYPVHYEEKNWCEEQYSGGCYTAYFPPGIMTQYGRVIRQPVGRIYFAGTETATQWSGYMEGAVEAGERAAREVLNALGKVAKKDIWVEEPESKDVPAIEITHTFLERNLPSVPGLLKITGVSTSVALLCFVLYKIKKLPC
Kind of assay: MAO-A inhibition in mitochondrial extracts of rat brain (in vitro, double-label assay). The settings on record: [3H]serotonin 0.2 mM substrate. It counts as biochemical. As for the experimental part: MAO was assayed with [^3 H]serotonin (0.2 mM, 5 Ci/mole) and [^14 C]β-phenethylamine (10 μM, 3 Ci/mole) as substrates in a double-label assay (white and Glassman, J. Neurochem. 29:987-97 (1977)). Under these conditions, serotonin is selectively metabolized by MAO-A and β-phenethylamine by MAO-B. […]
Compounds of formula (I) produced a potent selective inhibition of MAO-A in mitochondrial extracts of rat brain, the IC50 s (concentration producing 50% inhibition) being shown in Table I. This inhibition was competitive vs. the substrates serotonin or tyramine.
The results are shown in Table 1 with the IC50 being the concentration providing 50% inhibition. No significant inhibition of MAO-B was found with these compounds.
Regarding `CC(C)Oc1cc2c(cc1F)S(=O)(=O)c1ccc(F)cc1O2` [Compound 16, 2,7-difluoro-3-isopropoxyphenoxathiin 10,10-dioxide], the IC50 stood at 35 nM.
Still for that read-out and setting: the figure for `C[C@@H](CO)Oc1ccc2c(c1)Oc1ccccc1S2(=O)=O` [Compound 21, (S)-(+)-2-(3-phenoxathiinyloxy)propanol S,S-dioxide] is 70 nM; for `O=S1(=O)c2ccccc2Oc2cc(OC(CO)C(F)(F)F)ccc21` (racemic) [Compound 28, (rac)-2-(3-phenoxathiinyloxy)-2-(trifluoromethyl)ethanol-S,S-dioxide] it is 5 nM.
The same measure, in the same setting: the figure for `COc1ccc2c(c1)Oc1ccccc1S2(=O)=O` [Compound 14, 3-methoxyphenoxathiin 10,10-dioxide] is 20 nM.
On the same count and under the same terms, then `CC(C)Oc1cc2c(cc1F)S(=O)(=O)c1ccccc1O2` [Compound 12, 2-fluoro-3-isopropoxyphenoxathiin 10,10-dioxide], with 12 nM.
In turn, `CC(C)Oc1ccc2c(c1)Oc1ccccc1S2(=O)=O` [Compound 5, 3-isopropoxyphenoxathiin 10,10-dioxide] came in with an IC50 of 3.4 nM.
The same measure, in the same setting: then `O=S1(=O)c2ccccc2Oc2cc(OC(CF)CF)ccc21` [Compound 23, 3-[2-fluoro-1-(fluoromethyl)ethoxy]phenoxathiin-10,10-dioxide], with 2 nM; and `O=S1(=O)c2ccccc2Oc2cc(OCC(F)(F)F)ccc21` [Compound 22, 3-(2,2,2-trifluoroethoxy)phenoxathiin 10,10-dioxide], with 8 nM; and `CC(CO)Oc1ccc2c(c1)Oc1ccccc1S2(=O)=O` (racemic) [Compound 18, (rac)-2-(3-phenoxathiinyloxy)propanol S,S-dioxide], with 20 nM.
On the same count and under the same terms, the figure for `CC(C)Oc1ccc2c(c1)Oc1cc(F)ccc1S2(=O)=O` [Compound 11, 7-fluoro-3-isopropoxyphenoxathiin 10,10-dioxide] is 9 nM.
Still for that read-out and setting: the figure for `CC(Oc1ccc2c(c1)Oc1ccccc1S2(=O)=O)C(F)F` (racemic) [Compound 25, (rac)-3-(1-(difluoromethyl)ethoxy)phenoxathiin-10,10-dioxide] is 1.8 nM; for `O=S1(=O)c2ccccc2Oc2cc(OC(C(F)F)C(F)F)ccc21` [Compound 24, 3-(2,2-(difluoro)-1-(difluoromethyl)ethoxy)phenoxathiin-10,10-dioxide] it is 3.5 nM.
For the compound `O=S1(=O)c2ccc(F)cc2Oc2cc(OCC(F)(F)F)ccc21` [Compound 31, 3-fluoro-7-(2,2,2-trifluoroethoxy)phenoxathiin-10,10-dioxide], the “MAO-A Inhibition (rat brain) in vitro IC50” value (from here on “MAO-A Inhibition (rat brain)”) is recorded as “active”.
Regarding `CC(C)(C)Oc1ccc2c(c1)Oc1ccccc1S2(=O)=O` [Compound 15, 3-tert-butoxyphenoxathiin 10,10-dioxide], the IC50 turned out to be 26 nM.
Turning to `CCCCCOc1ccc2c(c1)Oc1ccccc1S2(=O)=O` [Compound 17, 3-(pentyloxy)phenoxathiin 10,10-dioxide], half-maximal inhibition (IC50) required 55 nM.
Regarding `CC(Oc1ccc2c(c1)Oc1ccccc1S2(=O)=O)C(F)(F)F` (single isomer, unassigned) [Compound 30, (S*)-3-(2,2,2-trifluoro-1-methylethoxy)phenoxathiin-10,10-dioxide], the half-inhibitory concentration (IC50) amounted to 14 nM.
The same measure, in the same setting: the figure for `CC(C)Oc1ccc2c(c1)Oc1cc(F)c(F)cc1S2(=O)=O` [Compound 9, 7,8-difluoro-3-isopropoxyphenoxathiin-10,10-dioxide] is 6 nM; for `CC[C@H](C)Oc1ccc2c(c1)Oc1ccccc1S2(=O)=O` [Compound 7, (S)-3-(1-methylpropoxy)phenoxathiin 10,10-dioxide] it is 4 nM.
As to `O=S1(=O)c2ccccc2Oc2cc(OC(CF)C(F)(F)F)ccc21` (racemic) [Compound 26, (rac)-3-(2-fluoro-1-(trifluoromethyl)ethoxy)phenoxathiin-10,10-dioxide], the “MAO-A Inhibition (rat brain)” value was “active”.
`CCOc1ccc2c(c1)Oc1ccccc1S2(=O)=O` [Compound 2, 3-ethoxyphenoxathiin 10,10-dioxide] had an IC50 of 2 nM.
Take `CC(C)Oc1cc2c(c(F)c1F)S(=O)(=O)c1ccccc1O2` [Compound 4, 1,2-difluoro-3-isopropoxyphenoxathiin 10,10-dioxide]: the IC50 turned out to be 3 nM.
As for `CCCOc1ccc2c(c1)Oc1ccccc1S2(=O)=O` [Compound 3, 3-propoxyphenoxathiin 10,10-dioxide], inhibition was half-maximal at 2.5 nM (IC50).
On the same count and under the same terms, then `CCCCOc1ccc2c(c1)Oc1ccccc1S2(=O)=O` [Compound 8, 3-butoxyphenoxathiin 10,10-dioxide], with 5 nM; and `CC(C)Oc1cc(F)c2c(c1)Oc1cc(F)ccc1S2(=O)=O` [Compound 19, 1,7-difluoro-3-isopropoxyphenoxathiin 10,10-dioxide], with 5 nM.
On the same count and under the same terms, then `CC(Oc1ccc2c(c1)Oc1ccccc1S2(=O)=O)C(F)(F)F` (racemic) [Compound 20, (rac)-3-(2,2,2-trifluoro-1-methylethoxy)phenoxathiin-10,10-dioxide], with 5 nM; and `CC(C)Oc1ccc2c(c1)Oc1cccc(F)c1S2(=O)=O` [Compound 10, 9-fluoro-3-isopropoxyphenoxathiin 10,10-dioxide], with 8 nM; and `CC(Oc1ccc2c(c1)Oc1ccccc1S2(=O)=O)C(F)(F)F` (single isomer, unassigned) [Compound 29, (R*)-3-(2,2,2-trifluoro-1-methylethoxy)phenoxathiin-10,10-dioxide], with 2 nM.
Compound `CC[C@@H](C)Oc1ccc2c(c1)Oc1ccccc1S2(=O)=O` [Compound 6, (R)-3-(1-methylpropoxy)phenoxathiin 10,10-dioxide] yielded an IC50 of 4 nM.
On to `CC(CF)Oc1ccc2c(c1)Oc1ccccc1S2(=O)=O` (racemic) [Compound 27, (rac)-3-(1-(fluoromethyl)ethoxy)phenoxathiin-10,10-dioxide], for which the “MAO-A Inhibition (rat brain)” value is listed as “active”.
Compound `CC(C)Oc1cc(F)c2c(c1)Oc1ccccc1S2(=O)=O` [Compound 1, 1-fluoro-3-isopropoxyphenoxathiin 10,10-dioxide] had an IC50 of 1.1 nM.
The same measure, in the same setting: the figure for `CCC(C)Oc1ccc2c(c1)Oc1ccccc1S2(=O)=O` (racemic) [Compound 13, (rac)-3-(1-methylpropoxy)phenoxathiin-10,10-dioxide] is 14 nM.

The record behind these values is patent publication US6110961A, “Phenoxathin derivatives as inhibitors of monoamine oxidase” (Krenitsky Pharmaceuticals, Inc., priority 1999, dated 2000).
